Results reported in US9540385B2, “Pyrrolopyrimidine compounds as kinase inhibitors” (Pharmacyclics LLC, priority 2012, dated 2017).

Molecular target: T1, BTK (Homo sapiens, UniProt Q06187)
T1 construct: purified from insect cells as a full-length construct containing a N-terminal 6×-His tag; His6 (N); made in house; host or cells: insect cells (baculovirus, Sf21)
Assay: Btk in vitro inhibitory activity / inhibition of a panel of kinases (TR-FRET, mobility shift or radiometric filter binding)
Assay type: biochemical
Details: kinase assay by one of methods A, B or C
Protocol: Btk kinase activity is determined using a time-resolved fluorescence resonance energy transfer (TR-FRET) methodology. Measurements are performed in a reaction volume of 50 μL using 96-well assay plates. Kinase enzyme, inhibitor, ATP (at the Km for the kinase), and 1 μM peptide substrate (Biotin-AVLESEEELYSSARQ-NH2) are incubated in a reaction buffer composed of 20 mM Tris, 50 mM NaCl, MgCl2 (5-25 mM depending on the kinase), MnCl2 (0-10 mM), 1 mM DTT, 0.1 mM EDTA, 0.01% bovine serum albumin, 0.005% Tween-20, and 10% DMSO at pH 7.4 for one hour. The reaction is quenched by the addition of 1.2 equivalents of EDTA (relative to divalent cation) in 25 μL of 1× Lance buffer (Perkin-Elmer). Streptavidin-APC (Perkin-Elmer) and Eu-labeled p-Tyr100 antibody (Perkin-Elmer) in 1× Lance buffer are added in a 25 μL volume to give final concentrations of 100 nM and 2.5 nM, respectively, and the mixture is allowed to incubate for one hour. The TR-FRET signal is measured on a multimode plate reader with an excitation wavelength (λEx) of 330 nm and detection wavelengths (λEm) of 615 and 665 nm. Activity is determined by the ratio of the fluorescence at 665 nm to that at 615 nm. For each compound, enzyme activity is measured at various concentrations of compound. Negative control reactions are performed in the absence of inhibitor in replicates of six, and two no-enzyme controls are used to determine baseline fluorescence levels. Inhibition constants, Ki(app), ware obtained using the program BatchKi (Kuzmic et al. (2000), Anal. Biochem. 286:45-50). IC50s are obtained according to the equation: IC50={Ki(app)/(1+[ATP]/Km^ATP)}+[E]total/2;
For all kinases, [ATP]=Km^ATP, [Btk]total=0.5 nM and [Lck]total=6 nM.
Kinase activity is measured in vitro using electrophoretic mobility shift assay. The kinase reactions are assembled in a total volume of 25 μL in 384 well plates. The reactions comprise: BTK enzyme (1 nM, N-terminal His6-tagged, recombinant, full-length, human BTK purified from baculovirus Sf21 insect cell system), inhibitor, ATP ([…] the apparent Km for the kinase), fluorescently labeled peptide substrate (1 μM, FAM-GEEPLYWSFPAKKK-NH2) in a reaction buffer composed of 100 mM HEPES, pH7.5, 5 mM MgCl2 1 mM DTT, 0.1% bovine serum albumin, 0.01% Triton X-100, and 1% DMSO. The reaction is incubated for one hour and is quenched by the addition of 45 μL of termination buffer (100 mM HEPES, pH7.5, 0.01% Triton X-100, 30 mM EDTA). The terminated reactions are analyzed using 12 channel LabChip® 3000 microfluidic detection instrument (Caliper Life Sciences). The enzymatic phosphorylation of the peptide results in a change in net charge, enabling electrophoretic separation of product from substrate peptide. As substrate and product peptides are separated, two peaks of fluorescence are observed. Change in the relative fluorescence intensity of the substrate and product peaks is the parameter measured, reflecting enzyme activity. In the presence of an inhibitor, the ratio between product and substrate is altered: the signal of the product decreases, while the signal of the substrate increases.
Activity in each sample is determined as the product to sum ratio (PSR):P/(S+P), where P is the peak height of the product peptide and S is the peak height of the substrate peptide. For each compound, enzyme activity is measured at various concentrations (12 concentrations of compound spaced by 3× dilution intervals). Negative control samples (0%-inhibition in the absence of inhibitor) and positive control samples (100%-inhibition, in the presence of 20 mM EDTA) are assembled in replicates of four and are used to calculate %-inhibition values for each inhibitor at each concentration. Percent inhibition (Pinh) is determined using following equation: […]

T1 sequence (Q06187 whole entry): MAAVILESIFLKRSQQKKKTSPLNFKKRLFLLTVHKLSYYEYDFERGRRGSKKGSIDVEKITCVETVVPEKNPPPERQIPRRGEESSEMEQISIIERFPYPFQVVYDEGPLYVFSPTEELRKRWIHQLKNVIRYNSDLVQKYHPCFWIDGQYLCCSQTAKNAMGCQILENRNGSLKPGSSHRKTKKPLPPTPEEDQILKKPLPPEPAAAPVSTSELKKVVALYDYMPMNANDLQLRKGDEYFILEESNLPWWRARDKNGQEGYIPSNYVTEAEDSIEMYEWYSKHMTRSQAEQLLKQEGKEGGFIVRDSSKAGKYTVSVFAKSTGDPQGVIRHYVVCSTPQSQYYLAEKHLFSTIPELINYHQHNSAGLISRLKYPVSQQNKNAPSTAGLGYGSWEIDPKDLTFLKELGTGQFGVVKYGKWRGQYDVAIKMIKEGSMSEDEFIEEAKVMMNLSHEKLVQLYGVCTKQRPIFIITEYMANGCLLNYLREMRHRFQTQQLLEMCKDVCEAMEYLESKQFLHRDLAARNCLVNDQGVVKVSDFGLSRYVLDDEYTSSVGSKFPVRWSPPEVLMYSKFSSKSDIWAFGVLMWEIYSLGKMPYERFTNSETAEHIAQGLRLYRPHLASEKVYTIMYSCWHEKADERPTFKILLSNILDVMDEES

Structure (SMILES)	IC50 [nM]
CN(C/C=C/C(=O)N1CC[C@@H](n2c(C3CC3)c(-c3ccc(Oc4cccc(F)c4)cc3)c3c(N)ncnc32)C1)C1CC1 [Compound 99, (R,E)-1-(3-(4-amino-6-cyclopropyl-5-(4-(3-fluorophenoxy)phenyl)-7H-pyrrolo[2,3-d]pyrimidin-7-yl)pyrrolidin-1-yl)-4-(cyclopropyl(methyl)amino)but-2-en-1-one]	100 to 1000
CN(C/C=C/C(=O)N1CC[C@@H](n2c(Cl)c(-c3ccc(Oc4ccccc4)cc3)c3c(N)ncnc32)C1)[C@H]1CCOC1 [Compound 56, (E)-1-((R)-3-(4-amino-6-chloro-5-(4-phenoxyphenyl)-7H-pyrrolo[2,3-d]pyrimidin-7-yl)pyrrolidin-1-yl)-4-(methyl((S)-tetrahydrofuran-3-yl)amino)but-2-en-1-one]	< 100
COCCN(C)C/C=C/C(=O)N1CC[C@@H](n2c(Cl)c(-c3ccc(Oc4ccccc4)cc3)c3c(N)ncnc32)C1 [Compound 55, (R,E)-1-(3-(4-amino-6-chloro-5-(4-phenoxyphenyl)-7H-pyrrolo[2,3-d]pyrimidin-7-yl)pyrrolidin-1-yl)-4-((2-methoxyethyl)(methyl)amino)but-2-en-1-one]	< 100
Cc1c(-c2ccc(Oc3cccc(F)c3)cc2)c2c(N)ncnc2n1[C@@H]1CCCN(C(=O)/C=C/CN(C)C2CC2)C1 [Compound 76, (R,E)-1-(3-(4-amino-5-(4-(3-fluorophenoxyl)phenyl)-6-methyl-7H-pyrrolo[2,3-d]pyrimidin-7-yl)piperidin-1-yl)-4-(cyclopropyl(methyl)amino)but-2-en-1-one]	< 100
CN(C/C=C/C(=O)N1CC[C@@H](n2c(C3CC3)c(-c3ccc(Oc4ccccc4)cc3)c3c(N)ncnc32)C1)[C@@H]1CCOC1 [Compound 97, (E)-1-((R)-3-(4-amino-6-cyclopropyl-5-(4-phenoxyphenyl)-7H-pyrrolo[2,3-d]pyrimidin-7-yl)pyrrolidin-1-yl)-4-(methyl((R)-tetrahydrofuran-3-yl)amino)but-2-en-1-one]	< 100
COCCN(C)C/C=C/C(=O)N1CC[C@@H](n2c(C3CC3)c(-c3ccc(Oc4ccccc4)cc3)c3c(N)ncnc32)C1 [Compound 96, (R,E)-1-(3-(4-amino-6-cyclopropyl-5-(4-phenoxyphenyl)-7H-pyrrolo[2,3-d]pyrimidin-7-yl)pyrrolidin-1-yl)-4-((2-methoxyethyl)(methyl)amino)but-2-en-1-one]	< 100
Cc1c(-c2ccc(Oc3cccc(F)c3)cc2)c2c(N)ncnc2n1[C@@H]1CCN(C(=O)/C=C/CN(C)C2CC2)C1 [Compound 53, (R,E)-1-(3-(4-amino-5-(4-(3-fluorophenoxyl)phenyl)-6-methyl-7H-pyrrolo[2,3-d]pyrimidin-7-yl)pyrrolidin-1-yl)-4-(cyclopropyl(methyl)amino)but-2-en-1-one]	< 100
CN(C/C=C/C(=O)N1CC[C@@H](n2c(C#N)c(-c3ccc(Oc4ccccc4)cc3)c3c(N)ncnc32)C1)[C@@H]1CCOC1 [Compound 107, 4-amino-7-((R)-1-((E)-4-(methyl((R)-tetrahydrofuran-3-yl)amino)but-2-enoyl)pyrrolidin-3-yl)-5-(4-phenoxyphenyl)-7H-pyrrolo[2,3-d]pyrimidine-6-carbonitrile]	< 100
CN(C/C=C/C(=O)N1CC[C@@H](n2c(C3CC3)c(-c3ccc(Oc4ccccc4)cc3)c3c(N)ncnc32)C1)[C@H]1CCOC1 [Compound 95, (E)-1-((R)-3-(4-amino-6-cyclopropyl-5-(4-phenoxyphenyl)-7H-pyrrolo[2,3-d]pyrimidin-7-yl)pyrrolidin-1-yl)-4-(methyl((S)-tetrahydrofuran-3-yl)amino)but-2-en-1-one]	< 100
CN(C/C=C/C(=O)N1CC[C@@H](n2c(C#N)c(-c3ccc(Oc4cccc(F)c4)cc3)c3c(N)ncnc32)C1)C1CC1 [Compound 109, (R,E)-4-amino-7-(1-(4-(cyclopropyl(methyl)amino)but-2-enoyl)pyrrolidin-3-yl)-5-(4-(3-fluorophenoxyl)phenyl)-7H-pyrrolo[2,3-d]pyrimidine-6-carbonitrile]	< 100

Continued, values first:

IC50 [nM]	Structure (SMILES)
< 100	Cc1c(-c2ccc(Oc3ccccc3)cc2)c2c(N)ncnc2n1C1CCN(C(=O)/C=C/CN(C)C2CC2)CC1 [Compound 67, (E)-1-(4-(4-amino-6-methyl-5-(4-phenoxyphenyl)-7H-pyrrolo[2,3-d]pyrimidin-7-yl)piperidin-1-yl)-4-(cyclopropyl(methyl)amino)but-2-en-1-one]
< 100	COc1c(-c2ccc(Oc3ccccc3)cc2)c2c(N)ncnc2n1[C@@H]1CCN(C(=O)/C=C/CN(C)C)C1 [Compound 88, (R,E)-1-(3-(4-amino-6-methoxy-5-(4-phenoxyphenyl)-7H-pyrrolo[2,3-d]pyrimidin-7-yl)pyrrolidin-1-yl)-4-(dimethylamino)but-2-en-1-one]
< 100	CN(C/C=C/C(=O)N1CC[C@@H](n2c(C(F)F)c(-c3ccc(Oc4ccccc4)cc3)c3c(N)ncnc32)C1)C1CC1 [Compound 122, (R,E)-1-(3-(4-amino-6-(difluoromethyl)-5-(4-phenoxyphenyl)-7H-pyrrolo[2,3-d]pyrimidin-7-yl)pyrrolidin-1-yl)-4-(cyclopropyl(methyl)amino)but-2-en-1-one]
< 100	CN(C/C=C/C(=O)N1CC[C@@H](n2c(C#N)c(-c3ccc(Oc4ccccc4)cc3)c3c(N)ncnc32)C1)C1CC1 [Compound 103, (R,E)-4-amino-7-(1-(4-(cyclopropyl(methyl)amino)but-2-enoyl)pyrrolidin-3-yl)-5-(4-phenoxyphenyl)-7H-pyrrolo[2,3-d]pyrimidine-6-carbonitrile]
< 100	C#Cc1c(-c2ccc(Oc3ccccc3)cc2)c2c(N)ncnc2n1[C@@H]1CCN(C(=O)/C=C/CN(C)C2CC2)C1 [Compound 112, (R,E)-1-(3-(4-amino-6-ethynyl-5-(4-phenoxyphenyl)-7H-pyrrolo[2,3-d]pyrimidin-7-yl)pyrrolidin-1-yl)-4-(cyclopropyl(methyl)amino)but-2-en-1-one]
100 to 1000	CC(C)c1c(-c2ccc(Oc3ccccc3)cc2)c2c(N)ncnc2n1[C@@H]1CCN(C(=O)/C=C/CN(C)C2CC2)C1 [Compound 118, (R,E)-1-(3-(4-amino-6-isopropyl-5-(4-phenoxyphenyl)-7H-pyrrolo[2,3-d]pyrimidin-7-yl)pyrrolidin-1-yl)-4-(cyclopropyl(methyl)amino)but-2-en-1-one]
< 100	CN(C)C/C=C/C(=O)N1CC[C@@H](n2c(C3CC3)c(-c3ccc(Oc4ccccc4)cc3)c3c(N)ncnc32)C1 [Compound 100, (R,E)-1-(3-(4-amino-6-cyclopropyl-5-(4-phenoxyphenyl)-7H-pyrrolo[2,3-d]pyrimidin-7-yl)pyrrolidin-1-yl)-4-(dimethylamino)but-2-en-1-one]
< 100	COc1c(-c2ccc(Oc3ccccc3)cc2)c2c(N)ncnc2n1[C@@H]1CCN(C(=O)/C=C/CN(C)C2CC2)C1 [Compound 89, (R,E)-1-(3-(4-amino-6-methoxy-5-(4-phenoxyphenyl)-7H-pyrrolo[2,3-d]pyrimidin-7-yl)pyrrolidin-1-yl)-4-(cyclopropyl(methyl)amino)but-2-en-1-one]
< 100	CN(C/C=C/C(=O)N1CC[C@@H](n2c(Cl)c(-c3ccc(Oc4ccccc4)cc3)c3c(N)ncnc32)C1)[C@@H]1CCOC1 [Compound 57, (E)-1-((R)-3-(4-amino-6-chloro-5-(4-phenoxyphenyl)-7H-pyrrolo[2,3-d]pyrimidin-7-yl)pyrrolidin-1-yl)-4-(methyl((R)-tetrahydrofuran-3-yl)amino)but-2-en-1-one]
